We go through three molecules from patent publication US9532984B2, “Therapeutic combination for cancer treatment” (The Translational Genomics Research Institute, priority 2011, dated 2017).

pIC50: −log10 of the molar value. Some results are limits rather than exact numbers.

For assay [1], the system named is SW48 KRas Kras G12V cells. As to the kind of experiment: Cancer cell growth inhibition (cell proliferation), SW48 Kras G12V. It counts as cell-based. The following applies: Homo sapiens. The method, then: (§1) The experiments involved a broad testing of multiple concentrations of metformin, phenformin and pioglitazone against fixed concentrations of the autophagy inhibitors. […] Similar tests were carried out in mouse models.

Assay [2] deals with SW48 KRas Kras G12D cells. As to the kind of experiment: Cancer cell growth inhibition (cell proliferation), SW48 Kras G12D. It counts as cell-based. The following applies: Homo sapiens. The protocol: as §1
A further assay has as its system SW48 KRas Kras WT cells. As to the kind of experiment: Cancer cell growth inhibition (cell proliferation), SW48 Kras WT. The following applies: Homo sapiens. It counts as cell-based. The protocol:
as §1

Assay [3] concerns BxPC-3 human pancreatic tumor xenograft. The method, then: BxPC-3 is a human pancreatic cancer cells obtained from the American Type Culture Collection and maintained as recommended. Female mice were inoculated subcutaneously in the right flank with 0.1 ml of a 50% RPMI/50% Matrigel™ (BD Biosciences, Bedford, Mass.) mixture containing a suspension of BxPC-3 human pancreatic tumor cells (approximately 5×10^6 cells/mouse). RPMI, a bicarbonate buffering system, and Matrigel™, a gelatinous protein mixture, support growth of many types of cultured cells including human normal and neoplastic leukocytes.
When tumors reached approximately 135 mg, mice were randomized into treatment groups. Body weights were recorded when the mice were randomized into groups and were weighted twice per week (on Study Days 3 and 7 for each cycle) thereafter in conjunction with tumor measurements. Group 1 mice were treated with vehicle control containing 5% DMA, 10% propylene glycol, 20% PEG 400, and 65% sterile water. Group 2 mice were treated with metformin only. Group 3 mice were treated with autophagy inhibitor in combination with metformin. Treatment began on the day of randomization. Metformin was delivered orally ad libitum in water. The autophagy inhibitor was delivered daily for 12 days in a vehicle of 5% DMA, 10% propylene glycol, 20% PEG 400, and 65% sterile water.

In general, pIC50 refers to the negative decadic logarithm of the IC50, by convention in mol/L. As for `CCc1ccc(CCOc2ccc(CC3SC(=O)NC3=O)cc2)nc1` (stereo not drawn) [Pioglitizone, pioglitazone], the negative-log IC50 (pIC50) was less than 3.60 in assay [1] (no autophagy inhibitor); 6.40 in assay [1] (with fixed Mefloquine 3 μM); 3.74 in assay [2] (no autophagy inhibitor); 5.01 in assay [2] (with fixed Mefloquine 3 μM); 3.81 in the assay with SW48 KRas Kras WT cells (no autophagy inhibitor); 5.09 in the assay with SW48 KRas Kras WT cells (with fixed Mefloquine 3 μM).
As to `[H]/N=C(/N)N/C(=N/[H])NCCc1ccccc1` [Phenformin, phenformin], the pIC50 was 4.79 in assay [1] (no autophagy inhibitor); 5.24 in assay [1] (with fixed Chloroquine 1 μM); 5.35 in assay [1] (with fixed Chloroquine 3 μM); 5.74 in assay [1] (with fixed Mefloquine 1 μM); 5.19 in assay [1] (with fixed Quinicrine 1 μM); 5.37 in assay [1] (with fixed Quinicrine 3 μM). Also, the pIC50 in assay [2] (no autophagy inhibitor) was 4.97; in assay [2] (with fixed Chloroquine 1 μM) it was 4.71; in assay [2] (with fixed Chloroquine 3 μM), 4.79; in assay [2] (with fixed Mefloquine 1 μM) it was 4.89; in assay [2] (with fixed Quinicrine 1 μM), 4.63; in assay [2] (with fixed Quinicrine 3 μM), 4.48. In addition, the pIC50 in the assay on SW48 KRas Kras WT cells (no autophagy inhibitor) is 5.14; in the assay on SW48 KRas Kras WT cells (with fixed Chloroquine 1 μM), 4.63; in the assay on SW48 KRas Kras WT cells (with fixed Chloroquine 3 μM), 4.93; with SW48 KRas Kras WT cells (with fixed Mefloquine 1 μM), 4.76; with SW48 KRas Kras WT cells (with fixed Quinicrine 1 μM), 4.96; in the assay with SW48 KRas Kras WT cells (with fixed Quinicrine 3 μM) it was 4.80.
Turning to `CN(C)C(=N)N=C(N)N` [Metformin, metformin], the pIC50 in assay [1] (no autophagy inhibitor) was 3.37; in assay [1] (with fixed Mefloquine 1 μM), greater than 4.70; in assay [1] (with fixed Mefloquine 3 μM) it was 4.40; in assay [1] (with fixed Primaquine 1 μM), 4.10; in assay [1] (with fixed Primaquine 3 μM) it was 3.49; in assay [1] (with fixed Quinicrine 1 μM), greater than 4.70. Moreover, the pIC50 in assay [1] (with fixed Quinicrine 3 μM) was 3.30; in assay [2] (no autophagy inhibitor), 2.89; in assay [2] (with fixed Mefloquine 1 μM), greater than 4.70; in assay [2] (with fixed Mefloquine 3 μM), 3.05; in assay [2] (with fixed Primaquine 1 μM) it was 4.00; in assay [2] (with fixed Primaquine 3 μM) it was less than 2.00. For the same molecule, the pIC50 was 2.96 in assay [2] (with fixed Quinicrine 1 μM); less than 2.00 in assay [2] (with fixed Quinicrine 3 μM); 3.00 in the assay on SW48 KRas Kras WT cells (no autophagy inhibitor); greater than 4.70 in the assay with SW48 KRas Kras WT cells (with fixed Mefloquine 1 μM); 3.22 in the assay on SW48 KRas Kras WT cells (with fixed Mefloquine 3 μM); 4.00 in the assay on SW48 KRas Kras WT cells (with fixed Primaquine 1 μM). Moreover, the values for the pIC50 in the assay with SW48 KRas Kras WT cells (with fixed Primaquine 3 μM), in the assay on SW48 KRas Kras WT cells (with fixed Quinicrine 1 μM) and in the assay with SW48 KRas Kras WT cells (with fixed Quinicrine 3 μM) were 2.59, 2.96 and 2.32, respectively. For the same molecule, in assay [3] (after day 18, FIG. 1), the tumor growth result is listed as “continued although at a lower rate than that in Group 1 control”. The tumor growth rate entry in assay [3] (day 8 to about day 18, compared among groups, FIG. 1) was “lowest tumor growth rate”. Further, the tumor size regressed in assay [3] (within about one week, after day 18) is listed as roughly 20 % by weight.
